In data set [1] the target is T1, human type PPARα ligand-binding domain fused with yeast transcription factor DNA-binding domain (Homo sapiens, UniProt Q07869).
T1 sequence (Q07869 239-466 limits assumed): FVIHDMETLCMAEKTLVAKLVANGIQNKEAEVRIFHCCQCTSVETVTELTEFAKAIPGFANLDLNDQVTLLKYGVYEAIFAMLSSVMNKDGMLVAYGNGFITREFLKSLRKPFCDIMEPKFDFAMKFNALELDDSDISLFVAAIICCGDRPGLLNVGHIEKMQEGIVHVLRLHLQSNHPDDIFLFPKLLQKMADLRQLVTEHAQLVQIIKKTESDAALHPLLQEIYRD
The data set is described as follows: Test of transactivation on PPARα (CHO cells, reporter plasmid, CAT activity).
Method: (§1) Test of Transactivation on Peroxisome Proliferator-activated Receptors α and β
(§2) After 24 hours, CAT activity and β-galactosidase activity were measured.

The target in data set [2] is T2, human PPARγ ligand-binding domain fused with yeast transcription factor DNA-binding domain (Homo sapiens, UniProt P37231).
T2 sequence (P37231 238-503 limits assumed): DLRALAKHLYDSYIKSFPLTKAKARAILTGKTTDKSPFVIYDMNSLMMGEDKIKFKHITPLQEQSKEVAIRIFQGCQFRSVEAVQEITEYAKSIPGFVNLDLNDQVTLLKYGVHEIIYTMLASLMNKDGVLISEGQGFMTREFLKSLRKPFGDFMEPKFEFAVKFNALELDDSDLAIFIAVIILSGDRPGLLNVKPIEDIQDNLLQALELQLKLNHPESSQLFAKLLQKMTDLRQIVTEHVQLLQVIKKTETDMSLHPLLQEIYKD
As to the kind of experiment: Test of transactivation on PPARγ (CHO cells, reporter plasmid, CAT activity).
Method: as §1, §2

Drawing on patent US6780431B1, “Substituted benzylthiazolidine-2,4-dione derivatives” (Kyorin Pharmaceutical Co., Ltd., priority 1999, dated 2004), this text covers EC50 and melting point for 14 compounds.

Read-outs that look alike come from different tables or passages of the source.

For orientation: EC50 means the midpoint of the concentration-response curve. Consider `COc1ccc(CC2SC(=O)NC2=O)cc1C(=O)NCc1cccc(OC(F)(F)F)c1` (stereo not drawn) [Example 4], for which the half-maximal effective concentration (EC50) in data set [1] came out at 180 nM; in data set [2], 360 nM.

With `CCCOc1ccc(CNC(=O)c2cc(CC3SC(=O)NC3=O)ccc2OC)cc1` (stereo not drawn) [Example 7], the EC50 in data set [1] was 110 nM; in data set [2], 1800 nM.

One may read the melting point as the temperature of the solid-liquid transition. For `COc1ccc(CC2SC(=O)NC2=O)cc1C(=O)NCc1ccc(Cl)cc1Cl` (stereo not drawn) (hydrate or solvate) [Example 8], the melting point is 188 to 189 °C.

`COc1ccc(CC2SC(=O)NC2=O)cc1C(=O)NCc1ccc(Cl)c(Cl)c1` (stereo not drawn) (hydrate or solvate) [Example 9] came in with a melting point of 181 to 182 °C.

On to `COc1ccc(CC2SC(=O)NC2=O)cc1C(=O)NCc1ccc(OC(C)C)cc1` (stereo not drawn) (hydrate or solvate) [Example 6], for which the melting point lay within 79 to 81.5 °C.

As for `COc1ccc(CC2SC(=O)NC2=O)cc1C(=O)NCc1ccc(Cl)cc1Cl` (stereo not drawn) [Example 8], the concentration for a half-maximal effect (EC50) is 220 nM in data set [1] and 280 nM in data set [2].

Regarding `CCCCC/C=C\C/C=C\C=C\[C@@H](O)C/C=C\CCCC(=O)O` [(8S)-HETE, reference compound], the EC50 in data set [1] (read-out: Transactivation PPARα EC50, CHO cells, 24 hours, CAT activity with β-galactosidase internal standard) came out at 1300 nM.

The compound `CCCOc1ccc(CNC(=O)c2cc(CC3SC(=O)NC3=O)ccc2OC)cc1` (stereo not drawn) (hydrate or solvate) [Example 7] displayed a melting point of 132 to 133 °C.

`COc1ccc(CC2SC(=O)NC2=O)cc1C(=O)NCc1ccc([N+](=O)[O-])cc1` (stereo not drawn) [Example 1, N-[(4-Nitrophenyl)methyl]-5-[(2,4-dioxothiazolidin-5-yl)methyl]-2-methoxybenzamide] came in with a melting point of 236.5 to 238.5 °C. Besides, a half-maximal response in data set [1] (EC50) required 530 nM. In addition, the midpoint of the response in data set [2], the EC50, lay at 1600 nM.

For `COc1ccc(CC2SC(=O)NC2=O)cc1C(=O)NCc1ccc(Cl)cc1` (stereo not drawn) [Example 3], the melting point is 199 to 201 °C. The compound also yielded a concentration giving a half-maximal response (EC50) in data set [1] of 260 nM. In data set [2], this compound yielded an EC50 of 400 nM.

`COc1ccc(CC2SC(=O)NC2=O)cc1C(=O)NCc1ccc(Br)cc1` (stereo not drawn) [Example 2] gave a melting point of 198 to 200 °C. Besides, the half-maximal effective concentration (EC50) in data set [1] was 490 nM. In data set [2], the EC50 amounted to 290 nM.

Consider `COc1ccc(CC2SC(=O)NC2=O)cc1C(=O)NCc1ccc(Cl)c(Cl)c1` (stereo not drawn) [Example 9], for which the concentration for a half-maximal effect (EC50) in data set [1] is 700 nM; in data set [2], 1100 nM.

As to `CCOc1ccc(CNC(=O)c2cc(CC3SC(=O)NC3=O)ccc2OC)cc1` (stereo not drawn) [Example 5], the melting point fell in the range of 130 to 132 °C. For the same compound, the EC50 in data set [1] is 430 nM. Moreover, the concentration giving a half-maximal response (EC50) in data set [2] came to 300 nM.

For `COc1ccc(CC2SC(=O)NC2=O)cc1C(=O)NCc1ccc(OC(C)C)cc1` (stereo not drawn) [Example 6], the concentration for a half-maximal effect (EC50) in data set [1] is 760 nM; in data set [2], 110 nM.
